In patent US12496304B2, “Selective glucocorticoid receptor modifiers for treating impaired skin wound healing” (AKRIBES BIOMEDICAL GMBH, priority 2019, dated 2025):
Read-outs that look alike come from different tables or passages of the source.

Experiments:
Collagen 3a = experiment: mRNA expression in fibroblast cultures (qRT-PCR): collagen 3; assay type: cell-based, human; details: WE-1, graded concentrations, 72-hour incubation (FIG. 7A)
Method: (§1) Cells were seeded into 24-well plates and incubated with compounds in the presence or absence of wound exudates for 72 hours. Total RNA was isolated using the RNeasy Mini Kit (QIAGEN #74106) according to the manufacturer's protocol. RNA integrity and concentration for each sample was confirmed and measured with the Qubit fluorometer. Each RNA sample was then diluted to 2 ng/μl in nuclease-free doubly distilled water.
(§2) 20 ng of total RNA were reverse-transcribed into cDNA and immediately subjected to PCR amplification using the SuperScript Ill Platinum One-Step Quantitative RT-PCR System with ROX (Invitrogen #11745). qRT-PCR amplifications were performed in 20 μl reactions containing 9 μl 2× Reaction Mix with ROX, 0.4 μl SuperScript III RT/Platinum Taq Mix and 1 μl primer (final: 900 nM, Taqman Gene Expression Assay, Applied Biosystems)
The program included 30 minutes of reverse transcription at 48° C., an initial denaturation for 5 minutes at 95° C. followed by 40 cycles of denaturation at 95° C. for 15 seconds and annealing at 60° C. for 60 seconds. Reactions were set up in 96-well format PCR plates (Peqlab #732-2879) and carried out in a Mx3005P Real-Time PCR Detection System (Stratagene).
TaqMan Gene Expression Assays (Applied Biosystems) were used, which include preoptimized probe and primer sets specific for the genes being validated. The sequences and ID numbers are listed below:
(§3) The house keeping gene elongation factor 1a (EF1a) was used as a reference gene. Normalized expression was calculated using the comparative Ct (or ΔCt) method, and fold changes were derived from the 2-ΔΔCt values for each gene. Graphs were prepared using relative Ct values that were calculated by subtracting the EF1a Ct values from the corresponding Ct values for the gene being measured.

IL1β = experiment: mRNA expression in fibroblast cultures (qRT-PCR): IL-1β; assay type: cell-based, human
Method: as §1
as §2, with “Biosystems) […]” for “Biosystems)”
as §3

IL-8 = experiment: U937 cell stimulation assay (LPS-induced IL-8); assay type: cell-based, human; details: LPS 100 ng/ml, 16 hours (FIG. 16A)
Method: The human monocytic cell line U937 (ATCC CRL 1593) was routinely grown in RPMI_1640 supplemented by 10% FCS and 2 mM glutamine, and 100 U/ml penicillin/100 μg/ml streptomycin. Cells were seeded at 4×10^5/ml in 50 μl/well of a 384-well plate and combined cells with graded concentrations of test compounds and LPS at 100 ng/ml. After 16 hours, the supernatants were transferred to fresh plates and frozen at −20° C. for IL-8 analysis, using a commercial ELISA kit.

glucocorticoid receptor [1] = biological target: T1, glucocorticoid receptor (Homo sapiens, UniProt P04150); details: read-out: EC50, potency for glucocorticoid receptor activation; cited from earlier work
T1 sequence (P04150 1-777): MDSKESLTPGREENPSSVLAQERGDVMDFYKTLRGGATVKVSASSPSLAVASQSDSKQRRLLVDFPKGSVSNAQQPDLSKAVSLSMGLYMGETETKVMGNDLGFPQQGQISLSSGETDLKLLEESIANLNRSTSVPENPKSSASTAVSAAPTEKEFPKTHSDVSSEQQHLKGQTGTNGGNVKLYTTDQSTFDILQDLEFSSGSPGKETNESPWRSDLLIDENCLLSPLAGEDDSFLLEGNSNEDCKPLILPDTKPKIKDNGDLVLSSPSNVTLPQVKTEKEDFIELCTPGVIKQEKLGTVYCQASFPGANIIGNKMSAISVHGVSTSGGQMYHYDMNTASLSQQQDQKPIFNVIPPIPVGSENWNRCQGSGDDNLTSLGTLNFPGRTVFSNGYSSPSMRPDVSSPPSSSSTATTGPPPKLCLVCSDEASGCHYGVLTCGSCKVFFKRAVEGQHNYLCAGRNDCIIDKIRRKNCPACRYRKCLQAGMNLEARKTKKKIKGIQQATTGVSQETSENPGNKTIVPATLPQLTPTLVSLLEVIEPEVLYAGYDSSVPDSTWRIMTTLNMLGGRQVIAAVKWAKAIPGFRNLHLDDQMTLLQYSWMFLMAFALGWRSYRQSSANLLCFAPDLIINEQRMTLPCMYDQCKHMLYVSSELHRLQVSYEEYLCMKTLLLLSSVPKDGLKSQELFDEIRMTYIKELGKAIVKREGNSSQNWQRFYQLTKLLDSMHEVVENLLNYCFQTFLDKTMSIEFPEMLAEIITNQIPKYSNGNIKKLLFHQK

glucocorticoid receptor [2] = biological target: T1, glucocorticoid receptor; details: 45 minutes at 37° C.

- localization of the glucocorticoid receptor (glucocorticoid receptor [2]; 0.1 nM): N/C
- localization of the glucocorticoid receptor (glucocorticoid receptor [2]; 1 nM): N
- localization of the glucocorticoid receptor (glucocorticoid receptor [2]; 100 nM): N
- localization of the glucocorticoid receptor (glucocorticoid receptor [2]; 10 nm): N
Structure (SMILES): Cc1ccc2c(NC[C@](O)(CC(C)(C)c3cc(F)cc4c3OCC4)C(F)(F)F)cccc2n1 [Mapracorat]
- collagen 3 mRNA expression (Collagen 3a): at all three concentrations enhanced collagen 3 mRNA expression in the presence of WE
- IL-1β mRNA expression (IL1β; WE-1, graded concentrations, 72-hour incubation (FIG. 8A)): dose-dependently inhibited IL-1β mRNA expression in the presence of WE
- IL-1β mRNA expression (IL1β; medium in the absence of WE, 72-hour incubation (FIG. 8B)): no IL-1β induction in medium
- LPS-induced IL-8 secretion in U937 cells (IL-8): inhibited both LPS-induced and spontaneous IL-8 secretion
- EC50 (glucocorticoid receptor [1]): 1.9 nM
